Assay results published in patent US7744910B2, “Compounds and compositions for delivering active agents” (Emisphere Technologies, Inc., priority 1998, dated 2010).
“And” between values parts separate entries of the source, which are not always exact repeats. Equal values may be shown once. Read-outs that look alike come from different tables or passages of the source.

Tests used:
[1] = PTH delivery in rats, oral (PO) and intracolonic (IC); serum PTH by radioimmunoassay; assay type: in vivo, Sprague-Dawley rats
Method: Oral gavage (PO) or intracolonic (IC) dosing solutions of delivery agent compound and parathyroid hormone residues 1-34 (PTH) (residues 1-38 for the solution with compound 103) were prepared. […] The final dosing solutions were prepared by mixing the compound solution with a PTH stock solution (typically having a concentration of 5 mg PTH/ml) and diluting to the desired volume (usually 3.0 ml).
The rats were administered one of the dosing solutions at 1 ml/kg for PO or 0.5 ml/kg for IC. Blood samples were collected serially from the tail artery for serum determination of PTH concentration. Serum PTH concentrations were quantified by a PTH radioimmunoassay kit (Kit # RIK 6101 from Peninsula Laboratories, Inc., San Carlos, Calif.).

[2] = Oral delivery of rhGH in rats; serum rhGH by immunoassay; assay type: in vivo, Sprague-Dawley rats
Method: Oral gavage (PO) dosing solutions of delivery agent compound and rhGH in phosphate buffer were prepared. […] The final dosing solutions were prepared by mixing the compound solution with an rhGH stock solution (typically having a concentration of 15 mg rhGH/ml) and diluting to the desired volume (usually 3.0 ml).
The rats were administered 1 ml/kg of the dosing solution. Blood samples were collected serially from the tail artery for determination of serum rhGH concentrations. Serum rhGH concentrations were quantified by an rhGH immunoassay test kit (Kit # KIF4015 from Genzyme Corporation Inc., Cambridge, Mass.).

[3] = Intracolonic delivery of heparin in rats; heparin activity by activated partial thromboplastin time (APTT); assay type: in vivo, Sprague-Dawley rats; conditions: IC
Method: Intracolonic dosing (IC) compositions containing delivery agent compound and heparin sodium USP in 25% aqueous propylene glycol were prepared by mixing. […] Typically, compound and heparin powders were mixed, 25% aqueous propylene glycol was added, NaOH solution was added, the contents sonicated, then diluted to a volume of 3.0. pH was checked and adjusted if necessary to pH=7-8.
The dosing solutions were administered to fasted rats at a volume dose of 1 ml/kg. Blood samples were collected by cardiac puncture following the administration of ketamine (44 mg/kg). Heparin activity was determined utilizing the activated partial thromboplastin time (APTT) according to the method of Henry, J. B., Clinical Diagnosis and Management by Laboratory Methods; Philadelphia, Pa.; W. B. Saunders (1979).

[4] = Oral delivery of salmon calcitonin (sCT) in rats; serum sCT by EIA; conditions: compound dose 50 mg/kg, sCT dose 25 μg/kg, modified EIA protocol
Method: (§1) Oral dosing (PO) compositions of delivery agent compound and salmon calcitonin (sCT) in water were prepared by mixing. 450 mg of compound was added to 2.0 ml of water. Either the sodium salt of the compound was used or the free acid was converted to the sodium salt by stirring the resultant solution and adding one equivalent of sodium hydroxide (1.0 N) and diluting with water. 90 μg sCT was added to the solution. Water was then added to bring the total volume to 3.0 ml. […] (For compounds 118 and 123, the solutions were diluted to 6.0 ml and the volume dose was doubled.) The total sCT concentration was 30 μg/ml.
(§2) Male Sprague-Dawley rats weighing between 200-25.0 g were fasted for 24 hours and were administered ketamine (44 mg/kg) and chlorpromazine (1.5 mg/kg) 15 minutes prior to dosing. The rats were administered 1 ml/kg of dosing solution (2 ml/kg for compounds 118 and 123). Blood samples were collected serially from the tail artery. Serum sCT was determined by testing with an EIA kit (Kit # EIAS-6003 from Peninsula Laboratories, Inc., San Carlos, Calif.). The standard protocol from the kit was modified for compounds 104 and 105 as follows: incubated with 50 μl peptide antibody for 2 hours with shaking in the dark, washed the plate, added serum and biotinylated peptide and diluted with 4 ml buffer, and shook overnight in the dark.

[5] = rat, in vivo, po, 150 mg/kg
Method: as §1, §2

[6] = PO, compound dose 300 mg/kg, PTH (1-34) dose 100 μg/kg
[7] = compound dose 300 mg/kg, rhGH dose 6 mg/kg
[8] = compound dose 50 mg/kg, heparin dose 25 mg/kg
[9] = compound dose 200 mg/kg, rhGH dose 3 mg/kg
[10] = PO, compound dose 100 mg/kg, PTH (1-34) dose 200 μg/kg

Nc1ccc(F)cc1C(=O)Nc1ccc(CCCC(=O)O)cc1 [Compound 3]
Mean Peak Serum PTH [1, 6]: 222 ± 155 pg/mL
Mean Peak Serum [rhGH] [2, 7]: 72 ± 45 ng/mL

CNc1ccccc1C(=O)Nc1ccc(CCC(=O)O)cc1 [Compound 7]
Mean Peak APTT [3, 8]: 59 ± 41 s

CNc1ccccc1C(=O)Nc1ccc(CCCC(=O)O)cc1 [Compound 10]
Mean Peak Serum PTH [1, 6]: 420 ± 335 pg/mL
Mean Peak Serum [rhGH] [2, 9]: 43 ± 65 ng/mL

Cc1cc(C)c(O)c(C(=O)Nc2ccc(CCCC(=O)O)cc2)c1 [Compound 14]
Mean Peak APTT [3, 8]: 54 ± 21 s

Nc1ccc(Cl)cc1C(=O)NCCCCCCCC(=O)O [Compound 40]
Mean Peak Serum [rhGH] [2, 7]: 42 ± 80 ng/mL

O=C(O)CCCCCCCNC(=O)c1cc(F)cc(F)c1O [Compound 41]
Mean Peak APTT [3, 8]: 41 ± 26 s

O=C(O)CCCCCCCNC(=O)c1cc(Cl)cc(F)c1O [Compound 45]
Mean Peak Serum [rhGH] [2, 9]: 49 ± 56 ng/mL

O=C(O)CCCCCCCNC(=O)Cc1ccc(O)cc1 [Compound 46]
Mean Peak APTT [3, 8]: 52 ± 34 s

O=C(O)CCCCCCCNC(=O)c1cc(Cl)cc(Br)c1O [Compound 48]
Mean Peak APTT [3, 8]: 75 ± 18 s

O=C(O)CCCCCCCNC(=O)c1c(O)cccc1Cl [Compound 51]
Mean Peak APTT [3, 8]: 111 ± 49 s

O=C(O)CCCCCCCNC(=O)c1cc(F)ccc1O [Compound 54]
Mean Peak APTT [3, 8]: 124 ± 137 s
Mean Peak Serum [rhGH] [2, 9]: 48 ± 33 ng/mL

Cc1cc(Cl)cc(C(=O)NCCCCCCCC(=O)O)c1O [Compound 55]
Mean Peak APTT [3, 8]: 125 ± 195 s

Cc1cc(F)cc(C(=O)NCCCCCCCC(=O)O)c1O [Compound 56]
Mean Peak APTT [3, 8]: 91 ± 75 s

O=C(O)CCc1ccc(F)c(NC(=O)c2ccccc2O)c1 [Compound 60]
Mean Peak APTT [3, 8]: 71 ± 43 s

O=C(O)CCCc1ccc(Nc2cc(=O)oc3ccccc23)cc1 [Compound 72]
Mean Peak APTT [3, 8]: 50 ± 18 s

O=C(O)CCCCCCCCCNC(=O)c1ccccc1F [Compound 85]
Mean Peak APTT [3, 8]: 27 ± 4 s

O=C(O)CCCCCNC(=O)c1ccccc1F [Compound 86]
Mean Peak Serum PTH [1, 10]: 0 pg/mL
Mean Peak APTT [3, 8]: 24 ± 1 s and 31 ± 11 s

O=C(O)CCCCCCCCCCNC(=O)c1ccccc1 [Compound 87]
Mean Peak APTT [3, 8]: 21 ± 1 s and 23 ± 3 s

O=C(O)CCCCCCCCCCNC(=O)c1ccccc1F [Compound 88]
Mean Peak APTT [3, 8]: 59 ± 47 s

O=C(O)CCCCCNC(=O)c1ccccc1 [Compound 89]
Mean Peak Serum PTH [1, 10]: 27 ± 61 pg/mL
Mean Peak APTT [3, 8]: 33 ± 7 s

COc1ccccc1C(=O)NCCCC(=O)O [Compound 90]
Mean Peak Serum PTH [1, 10]: 14 ± 21 pg/mL
Mean Peak APTT [3, 8]: 26 ± 7 s

Cc1ccccc1C(=O)NCCCC(=O)O [Compound 91]
Mean Peak Serum PTH [1, 10]: 5 ± 12 pg/mL
Mean Peak APTT [3, 8]: 24 ± 4 s

O=C(O)CCCNC(=O)c1ccccc1F [Compound 92]
Mean Peak Serum PTH [1, 10]: 303 ± 427 pg/mL
Mean Peak APTT [3, 8]: 22 ± 2 s

O=C(O)CCCNC(=O)c1ccccc1 [Compound 93]
Mean Peak Serum PTH [1, 10]: 343 ± 155 pg/mL
Mean Peak APTT ([3]; compound dose 25 mg/kg, heparin dose 50 mg/kg): 22 ± 0 s

COc1ccccc1C(=O)NCCCCCCCCCC(=O)O [Compound 94]
Mean Peak Serum PTH [1, 10]: 17 ± 38 pg/mL
Mean Peak APTT [3, 8]: 50 ± 28 s

Cc1ccccc1C(=O)NCCCCCCCCCCCC(=O)O [Compound 95]
Mean Peak APTT [3, 8]: 30 ± 2 s

COc1ccccc1C(=O)NCCCCCCCCCCCC(=O)O [Compound 96]
Mean Peak APTT [3, 8]: 72 ± 63 s

O=C(O)CCCCCCCCCCCNC(=O)c1ccccc1F [Compound 97]
Mean Peak APTT [3, 8]: 33 ± 10 s

O=C(O)CCCCCCCCCCCNC(=O)c1ccccc1 [Compound 98]
Mean Peak APTT [3, 8]: 25 ± 5 s

Cc1ccccc1C(=O)NCCCCCCCCCC(=O)O [Compound 99]
Mean Peak APTT [3, 8]: 34 ± 7 s

O=C(O)CCCCCCCCCNC(=O)c1ccccc1 [Compound 100]
Mean Peak APTT [3, 8]: 31 ± 8 s

Cc1ccccc1C(=O)NCCCCCC(=O)O [Compound 101]
Mean Peak APTT [3, 8]: 26 ± 5 s

COc1ccc(C(=O)NCC(=O)O)c(O)c1 [Compound 102]
Mean Peak APTT [3, 8]: 24.8 ± 0.9 s and 24.7 ± 6.5 s

O=C(O)CCNC(=O)c1ccccc1O [Compound 103]
Mean Peak Serum PTH ([1]; IC, compound dose 100 mg/kg, PTH residues 1-38 dose 25 μg/kg): 38.53 ± 30.9 pg/mL
Mean Peak APTT [3, 8]: 21.9 ± 2.0 s

COc1ccc(C(=O)Nc2ccc(CCCC(=O)O)cc2)c(O)c1 [Compound 104]
Mean Peak Serum PTH [1, 10]: 286.35 ± 191.58 pg/mL
Serum sCT (pg/ml) ± SD (SE) [4]: 287 ± 104 pg/mL

O=C(O)CCCNC(=O)c1cc(Cl)ccc1O [Compound 105]
Serum sCT (pg/ml) ± SD (SE) [4]: 583 ± 140 pg/mL

COc1ccc(C(=O)NCCCC(=O)O)c(O)c1 [Compound 106]
Mean Peak APTT [3, 8]: 48 ± 16.9 s and 27.7 ± 12.6 s

COc1ccc(C(=O)NCCCCCC(=O)O)c(O)c1 [Compound 107]
Mean Peak APTT [3, 8]: 26.2 ± 6.1 s

COc1ccc(C(=O)NCCCCCCCCCC(=O)O)c(O)c1 [Compound 108]
Mean Peak APTT [3, 8]: 72.9 ± 28.9 s

COc1ccc(C(=O)NCCCCCCCCCCCC(=O)O)c(O)c1 [Compound 109]
Mean Peak APTT [3, 8]: 24.2 ± 1.7 s

O=C(O)CNC(=O)c1ccccc1 [Compound 110]
Mean Peak APTT [3, 8]: 26.5 ± 4.7 s and 23.4 ± 0.7 s

Cc1ccccc1C(=O)NCC(=O)O [Compound 111]
Mean Peak APTT [3, 8]: 24.4 ± 3.3 s

COc1ccccc1C(=O)NCC(=O)O [Compound 112]
Mean Peak APTT [3, 8]: 28.7 ± 11.5 s

O=C(O)CNC(=O)c1ccccc1F [Compound 113]
Mean Peak APTT [3, 8]: 20.4 s

O=C(O)CCCC(=O)Nc1cc(Cl)ccc1O [Compound 119]
Serum sCT (pg/ml) ± SD (SE) [5]: 95 ± 119 (53) pg/ml

O=C(O)CCCCCC(=O)Nc1cc(Cl)ccc1O [Compound 120]
Mean Peak APTT [3, 8]: 42 ± 34 s

O=C(O)CCCCCCCC(=O)Nc1cc(Cl)ccc1O [Compound 122]
Serum sCT (pg/ml) ± SD (SE) [5]: 187 ± 79 (36) pg/ml

O=C(O)CCCCCCCCC(=O)Nc1cc(Cl)ccc1O [Compound 123]
Serum sCT (pg/ml) ± SD (SE) [5]: 0 pg/mL
